According to BindingDB's records for PubMed 32163814 (n/a, 2020):

Columns and labels:
Histone deacetylase 6 [1] = molecular target: T1, Histone deacetylase 6 (Homo sapiens, UniProt Q9UBN7); assay: Inhibition of human recombinant HDAC6 using fluorogenic HDAC substrate measured after 20 mins by fluorescence assay
T1 sequence (Q9UBN7 whole entry): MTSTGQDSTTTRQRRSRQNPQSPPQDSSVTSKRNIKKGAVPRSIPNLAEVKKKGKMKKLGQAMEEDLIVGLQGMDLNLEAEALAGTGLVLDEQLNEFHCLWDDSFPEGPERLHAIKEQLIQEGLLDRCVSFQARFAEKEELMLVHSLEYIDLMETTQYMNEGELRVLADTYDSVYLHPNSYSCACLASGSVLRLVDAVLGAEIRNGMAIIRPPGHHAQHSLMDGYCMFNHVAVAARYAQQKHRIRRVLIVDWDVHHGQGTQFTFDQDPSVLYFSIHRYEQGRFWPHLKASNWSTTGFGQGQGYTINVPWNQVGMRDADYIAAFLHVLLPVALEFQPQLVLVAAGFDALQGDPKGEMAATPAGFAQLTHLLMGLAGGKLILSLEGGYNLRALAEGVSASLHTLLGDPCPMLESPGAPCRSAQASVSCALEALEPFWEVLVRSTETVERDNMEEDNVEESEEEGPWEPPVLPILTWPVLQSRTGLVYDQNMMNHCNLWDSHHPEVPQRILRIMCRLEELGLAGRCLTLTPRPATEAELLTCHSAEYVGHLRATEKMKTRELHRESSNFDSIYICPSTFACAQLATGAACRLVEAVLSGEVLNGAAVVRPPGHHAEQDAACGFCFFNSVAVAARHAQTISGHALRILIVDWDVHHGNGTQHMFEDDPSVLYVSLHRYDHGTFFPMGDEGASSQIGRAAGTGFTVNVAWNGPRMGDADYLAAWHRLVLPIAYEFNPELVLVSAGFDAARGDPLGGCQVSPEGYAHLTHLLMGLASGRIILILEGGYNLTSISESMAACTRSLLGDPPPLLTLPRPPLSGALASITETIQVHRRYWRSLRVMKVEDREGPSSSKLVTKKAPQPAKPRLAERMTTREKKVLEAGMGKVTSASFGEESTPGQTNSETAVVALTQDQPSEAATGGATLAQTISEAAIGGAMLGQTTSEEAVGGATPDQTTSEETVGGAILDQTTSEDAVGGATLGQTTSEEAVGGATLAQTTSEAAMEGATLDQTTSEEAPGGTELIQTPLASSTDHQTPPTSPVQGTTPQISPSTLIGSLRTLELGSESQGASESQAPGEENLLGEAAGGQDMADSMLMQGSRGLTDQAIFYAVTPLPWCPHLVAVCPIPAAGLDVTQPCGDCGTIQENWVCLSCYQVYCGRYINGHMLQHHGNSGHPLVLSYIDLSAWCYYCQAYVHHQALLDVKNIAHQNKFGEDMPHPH

Histone deacetylase 6 [2] = molecular target: T1, Histone deacetylase 6; assay: Inhibition of human HDAC6 using fluorogenic as substrate measured after 30 mins by fluorescence based analysis
Histone deacetylase 1 = Histone deacetylase 1 (Homo sapiens, UniProt Q13547); assay: Inhibition of human HDAC1 using fluorogenic as substrate measured after 30 mins by fluorescence based analysis
Histone deacetylase 2 = Histone deacetylase 2 (Homo sapiens, UniProt Q92769); assay: Inhibition of human HDAC2 using fluorogenic as substrate measured after 30 mins by fluorescence based analysis
Histone deacetylase 3 = Histone deacetylase 3 (Homo sapiens, UniProt O15379); assay: Inhibition of human HDAC3 using fluorogenic as substrate measured after 30 mins by fluorescence based analysis
Histone deacetylase 3, sequence (O15379 whole entry): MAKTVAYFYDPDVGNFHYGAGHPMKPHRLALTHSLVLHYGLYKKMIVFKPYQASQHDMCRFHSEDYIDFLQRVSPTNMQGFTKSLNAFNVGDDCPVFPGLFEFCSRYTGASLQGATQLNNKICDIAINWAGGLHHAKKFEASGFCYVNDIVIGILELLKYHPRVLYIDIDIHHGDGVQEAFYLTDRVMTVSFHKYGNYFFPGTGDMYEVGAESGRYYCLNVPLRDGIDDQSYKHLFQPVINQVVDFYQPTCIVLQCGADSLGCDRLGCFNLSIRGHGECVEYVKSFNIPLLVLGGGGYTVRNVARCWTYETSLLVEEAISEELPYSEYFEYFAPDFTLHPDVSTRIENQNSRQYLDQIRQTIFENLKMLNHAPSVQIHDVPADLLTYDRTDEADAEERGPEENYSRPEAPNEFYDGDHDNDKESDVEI

Histone deacetylase 2, sequence (Q92769 whole entry): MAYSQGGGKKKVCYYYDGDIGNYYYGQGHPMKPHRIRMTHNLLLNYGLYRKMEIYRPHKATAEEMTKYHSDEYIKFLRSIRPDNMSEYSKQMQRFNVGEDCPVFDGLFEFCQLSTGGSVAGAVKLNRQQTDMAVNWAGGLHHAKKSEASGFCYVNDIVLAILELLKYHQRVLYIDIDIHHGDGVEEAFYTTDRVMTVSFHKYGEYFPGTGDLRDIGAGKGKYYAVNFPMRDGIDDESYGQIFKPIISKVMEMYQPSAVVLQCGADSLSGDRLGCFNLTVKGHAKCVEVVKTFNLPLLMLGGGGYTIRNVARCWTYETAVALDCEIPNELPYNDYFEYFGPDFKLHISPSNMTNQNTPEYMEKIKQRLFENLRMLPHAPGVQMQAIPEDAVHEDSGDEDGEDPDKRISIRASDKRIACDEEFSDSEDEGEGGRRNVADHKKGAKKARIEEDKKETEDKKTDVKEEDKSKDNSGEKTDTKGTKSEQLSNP
Histone deacetylase 1, sequence (Q13547 whole entry): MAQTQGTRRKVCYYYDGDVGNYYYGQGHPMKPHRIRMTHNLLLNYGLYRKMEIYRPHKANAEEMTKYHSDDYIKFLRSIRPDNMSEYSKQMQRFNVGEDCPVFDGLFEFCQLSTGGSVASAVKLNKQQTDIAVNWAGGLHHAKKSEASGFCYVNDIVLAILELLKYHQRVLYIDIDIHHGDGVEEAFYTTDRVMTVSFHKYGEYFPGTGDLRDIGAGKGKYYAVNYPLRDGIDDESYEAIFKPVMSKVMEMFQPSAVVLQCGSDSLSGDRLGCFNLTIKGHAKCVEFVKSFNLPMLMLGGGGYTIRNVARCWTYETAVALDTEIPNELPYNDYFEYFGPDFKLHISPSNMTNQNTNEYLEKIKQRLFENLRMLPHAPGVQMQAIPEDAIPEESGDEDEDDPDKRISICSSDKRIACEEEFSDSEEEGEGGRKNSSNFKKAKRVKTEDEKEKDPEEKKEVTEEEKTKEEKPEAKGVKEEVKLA

| SMILES | IC50 (Histone deacetylase 6 [1]) | IC50 (Histone deacetylase 6 [2]) | IC50 (Histone deacetylase 1) | IC50 (Histone deacetylase 2) | IC50 (Histone deacetylase 3) |
| --- | --- | --- | --- | --- | --- |
| COc1ccccc1NC(=O)N[C@H](C(=O)Nc1ccc(C(=O)NO)cc1)c1ccccc1 | 294 nM | – | – | – | – |
| O=C(NO)c1ccc(NC(=O)[C@@H](NC(=O)c2ccc3ccccc3c2)c2ccccc2)cc1 | – | 376 nM | 29 nM | 244 nM | – |
| O=C(NO)c1ccc(NC(=O)[C@@H](NS(=O)(=O)c2cccc3ccccc23)c2ccccc2)cc1 | – | 295 nM | 31 nM | 171 nM | 23 nM |
| O=C(NO)c1ccc(NC(=O)[C@@H](NC(=O)c2cccc(Br)c2)c2ccccc2)cc1 | – | 196 nM | – | 89 nM | – |
| CN(C)c1cccc2c(S(=O)(=O)N[C@H](C(=O)Nc3ccc(C(=O)NO)cc3)c3ccccc3)cccc12 | – | 366 nM | – | 107 nM | – |
